The results in this text go back to paper PMC9421653 (Journal of Medicinal Chemistry, 2022).

For this test, the target named is T1, human GPR84 (Homo sapiens, UniProt P04899+Q9NQS5).
T1 construct: expressed in transfected cells; host or cells: Flp-In T-REx 293 cells, doxycycline-induced; membrane preparations
T1 sequence (Q9NQS5+P04899 fused): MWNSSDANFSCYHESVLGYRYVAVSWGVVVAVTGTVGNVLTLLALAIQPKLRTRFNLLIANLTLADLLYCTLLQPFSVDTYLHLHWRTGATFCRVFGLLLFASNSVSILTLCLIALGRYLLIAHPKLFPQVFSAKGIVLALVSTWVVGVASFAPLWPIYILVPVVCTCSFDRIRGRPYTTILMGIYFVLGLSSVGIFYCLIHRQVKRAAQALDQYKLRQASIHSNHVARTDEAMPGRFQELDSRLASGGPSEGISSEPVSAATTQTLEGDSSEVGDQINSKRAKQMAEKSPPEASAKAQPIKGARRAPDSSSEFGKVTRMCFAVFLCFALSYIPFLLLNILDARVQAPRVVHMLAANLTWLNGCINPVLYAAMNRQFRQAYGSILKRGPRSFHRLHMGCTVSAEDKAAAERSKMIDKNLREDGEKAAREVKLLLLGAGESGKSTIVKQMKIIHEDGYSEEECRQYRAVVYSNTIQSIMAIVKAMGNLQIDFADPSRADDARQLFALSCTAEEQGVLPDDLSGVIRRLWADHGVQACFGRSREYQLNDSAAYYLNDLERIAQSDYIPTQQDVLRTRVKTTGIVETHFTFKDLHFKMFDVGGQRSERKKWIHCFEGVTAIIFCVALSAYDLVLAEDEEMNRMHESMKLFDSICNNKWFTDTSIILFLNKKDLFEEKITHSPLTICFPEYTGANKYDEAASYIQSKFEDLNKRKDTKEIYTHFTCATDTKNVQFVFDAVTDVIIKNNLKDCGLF
Description: biochemical. As to conditions: [35S]GTPγS assay; negative log of the IC50 in molar; mean ± SEM. It counts as biochemical. A general note: Binding of GTPγS marks nucleotide exchange on a G protein.
Regarding “3-((5-Phenyl-6-(pyrimidin-2-yl)-1,2,4-triazin-3-yl)methyl)-1H-indole or 3-((6-phenyl-5-(pyrimidin-2-yl)-1,2,4-triazin-3-yl)methyl)-1H-indole [Compound 32]”, the “GTPγS (pIC50)” value is reported as 6.58 ± 0.08.
Next, `Fc1ccc(-c2nnc(Cc3c[nH]c4ccccc34)nc2-c2ccc(F)cc2)cc1` [Compound 5, 3-((5,6-Bis(4-fluorophenyl)-1,2,4-triazin-3-yl)methyl)-1H-indole]: 7.81 ± 0.04; `Brc1ccc(-c2nnc(Cc3c[nH]c4ccccc34)nc2-c2ccc(Br)cc2)cc1` [Compound 7, 3-((5,6-Bis(4-bromophenyl)-1,2,4-triazin-3-yl)methyl)-1H-indole]: 7.60 ± 0.02.
Next, `c1ccc(-c2nnc(Cc3c[nH]c4ccccc34)nc2-c2ccccn2)nc1` [Compound 8, 3-((5,6-Di(pyridin-2-yl)-1,2,4-triazin-3-yl)methyl)-1H-indole]: 5.70 ± 0.21.
Regarding `CC(C)c1nnc(Cc2c[nH]c3ccccc23)nc1C(C)C` [Compound 9, 3-((5,6-Diisopropyl-1,2,4-triazin-3-yl)methyl)-1H-indole], the “GTPγS (pIC50)” value is reported as 5.38 ± 0.05.
Next, `COC(=O)c1ccc(-c2nnc(Cc3c[nH]c4ccccc34)nc2-c2ccc(C(=O)OC)cc2)cc1` [Compound 10, Methyl 4-[3-(1H-Indol-3-ylmethyl)-6-(4-methoxycarbonylphenyl)-1,2,4-triazin-5-yl]benzoate]: 6.67 ± 0.08; `c1csc(-c2nnc(Cc3c[nH]c4ccccc34)nc2-c2cccs2)c1` [Compound 11, 3-((5,6-Di(thiophen-2-yl)-1,2,4-triazin-3-yl)methyl)-1H-indole]: 7.62 ± 0.05.
Next, `COc1ccc(-c2nnc(Cc3c[nH]c4ccc(F)cc34)nc2-c2ccc(OC)cc2)cc1` [Compound 12, 3-((5,6-Bis(4-methoxyphenyl)-1,2,4-triazin-3-yl)methyl)-5-fluoro-1H-indole]: 6.92 ± 0.07.
With `COc1ccc(-c2nnc(Cc3cn(C)c4ccccc34)nc2-c2ccc(OC)cc2)cc1` [Compound 13, 3-((5,6-Bis(4-methoxyphenyl)-1,2,4-triazin-3-yl)methyl)-1-methyl-1H-indole], the “GTPγS (pIC50)” value was less than 4.70.
The result for `COc1ccc(-c2nnc(Cc3n[nH]c4ccccc34)nc2-c2ccc(OC)cc2)cc1` [Compound 14, 3-((5,6-Bis(4-methoxyphenyl)-1,2,4-triazin-3-yl)methyl)-1H-indazole] reads 6.67 ± 0.03; that for `Fc1ccc2c(Cc3nnc(-c4ccccc4)c(-c4ccccc4)n3)c[nH]c2c1` [Compound 15, 3-((5,6-Diphenyl-1,2,4-triazin-3-yl)methyl)-6-fluoro-1H-indole], 6.65 ± 0.03; that for `Cc1ccc2c(Cc3nnc(-c4ccccc4)c(-c4ccccc4)n3)c[nH]c2c1` [Compound 16, 3-((5,6-Diphenyl-1,2,4-triazin-3-yl)methyl)-6-methyl-1H-indole], less than 4.70.
The result for `c1ccc(-c2nnc(Cc3cnc4ccccn34)nc2-c2ccccc2)cc1` [Compound 20, 3-((5,6-Diphenyl-1,2,4-triazin-3-yl)methyl)imidazo[1,2-a]pyridine] reads 5.44 ± 0.09; that for `CCCCCc1nnc(-c2ccccc2)c(-c2ccccc2)n1` [Compound 21, 3-Pentyl-5,6-diphenyl-1,2,4-triazine], 5.12 ± 0.05.
Next, `c1ccc(-c2nnc(CCc3cccnc3)nc2-c2ccccc2)cc1` [Compound 22, 5,6-Diphenyl-3-(2-(pyridin-3-yl)ethyl)-1,2,4-triazine]: 5.00 ± 0.17.
Take `Cc1cc(Cc2nnc(-c3ccccc3)c(-c3ccccc3)n2)n[nH]1` [Compound 23, 3-((5-Methyl-1H-pyrazol-3-yl)methyl)-5,6-diphenyl-1,2,4-triazine]: the “GTPγS (pIC50)” value was 4.97 ± 0.23.
The result for `c1ccc(-c2nnc(NCc3cccnc3)nc2-c2ccccc2)cc1` [Compound 24, 5,6-Diphenyl-N-(pyridin-3-ylmethyl)-1,2,4-triazin-3-amine] reads 5.47 ± 0.05; that for `Cc1cc(Nc2nnc(-c3ccccc3)c(-c3ccccc3)n2)n[nH]1` [Compound 25, N-(5-Methyl-1H-pyrazol-3-yl)-5,6-diphenyl-1,2,4-triazin-3-amine], less than 4.70; that for `FC(F)(F)Oc1ccccc1-c1cnnc(Cc2c[nH]c3ccccc23)n1` [Compound 26, 3-((5-(2-(Trifluoromethoxy)phenyl)-1,2,4-triazin-3-yl)methyl)-1H-indole], less than 4.70.
Next, `FC(F)(F)Oc1ccccc1-c1cnc(Cc2c[nH]c3ccccc23)nn1` [Compound 27, 3-((6-(2-(Trifluoromethoxy)phenyl)-1,2,4-triazin-3-yl)methyl)-1H-indole]: 5.59 ± 0.13.
Next, `c1ccc(-c2nc(Cc3c[nH]c4ccccc34)nnc2-c2cccnn2)cc1` [Compound 31, 3-((5-Phenyl-6-(pyridazin-3-yl)-1,2,4-triazin-3-yl)methyl)-1H-indole]: 6.85 ± 0.03; `CNS(=O)(=O)c1ccc(-c2nc(Cc3c[nH]c4ccccc34)nnc2-c2ccccc2)cc1` [Compound 33, 4-(3-((1H-Indol-3-yl)methyl)-6-phenyl-1,2,4-triazin-5-yl)-N-methylbenzenesulfonamide]: 6.49 ± 0.05.
As for `CS(=O)(=O)c1ccc(-c2nnc(Cc3c[nH]c4ccccc34)nc2-c2ccccc2)cc1` [Compound 36, 3-((6-(4-(Methylsulfonyl)phenyl)-5-phenyl-1,2,4-triazin-3-yl)methyl)-1H-indole], the “GTPγS (pIC50)” value came out at 6.18 ± 0.04.
Next, `CC(=O)OCc1ccc(-c2nc(Cc3c[nH]c4ccccc34)nnc2-c2ccccc2)cc1` [Compound 37, 4-(3-((1H-Indol-3-yl)methyl)-6-phenyl-1,2,4-triazin-5-yl)benzyl Acetate]: 8.30 ± 0.35; `CC(=O)OCc1ccc(-c2nnc(Cc3c[nH]c4ccccc34)nc2-c2ccccc2)cc1` [Compound 38, 4-(3-((1H-Indol-3-yl)methyl)-5-phenyl-1,2,4-triazin-6-yl)benzyl Acetate]: 8.06 ± 0.27.
Next, `OCc1ccc(-c2nc(Cc3c[nH]c4ccccc34)nnc2-c2ccccc2)cc1` [Compound 39, (4-(3-((1H-Indol-3-yl)methyl)-6-phenyl-1,2,4-triazin-5-yl)phenyl)methanol]: 7.16 ± 0.04.
Next, `OCc1ccc(-c2nnc(Cc3c[nH]c4ccccc34)nc2-c2ccccc2)cc1` [Compound 40, (4-(3-((1H-Indol-3-yl)methyl)-5-phenyl-1,2,4-triazin-6-yl)phenyl)methanol]: 7.76 ± 0.06.
Take `c1ccc(-c2nnc(Cc3c[nH]c4ccccc34)nc2-c2ccc(CN3CCOCC3)cc2)cc1` [Compound 41, 4-(4-(3-((1H-Indol-3-yl)methyl)-6-phenyl-1,2,4-triazin-5-yl)benzyl)morpholine]: the “GTPγS (pIC50)” value is 7.51 ± 0.28.
The result for `CN(C)Cc1ccc(-c2nc(Cc3c[nH]c4ccccc34)nnc2-c2ccccc2)cc1` [Compound 43, 1-(4-(3-((1H-Indol-3-yl)methyl)-6-phenyl-1,2,4-triazin-5-yl)phenyl)-N,N-dimethylmethanamine] reads 6.20 ± 0.05; that for `CN(C)Cc1ccc(-c2nnc(Cc3c[nH]c4ccccc34)nc2-c2ccccc2)cc1` [Compound 44, 1-(4-(3-((1H-Indol-3-yl)methyl)-5-phenyl-1,2,4-triazin-6-yl)phenyl)-N,N-dimethylmethanamine], 6.68 ± 0.05; that for `CC(=O)NCc1ccc(-c2nc(Cc3c[nH]c4ccccc34)nnc2-c2ccccc2)cc1` [Compound 45, N-(4-(3-((1H-Indol-3-yl)methyl)-6-phenyl-1,2,4-triazin-5-yl)benzyl)acetamide], 6.93 ± 0.06.
Next, `CC(=O)NCc1ccc(-c2nnc(Cc3c[nH]c4ccccc34)nc2-c2ccccc2)cc1` [Compound 46, N-(4-(3-((1H-Indol-3-yl)methyl)-5-phenyl-1,2,4-triazin-6-yl)benzyl)acetamide]: 7.98 ± 0.06; `CS(=O)(=O)NCc1ccc(-c2nc(Cc3c[nH]c4ccccc34)nnc2-c2ccccc2)cc1` [Compound 47, N-(4-(3-((1H-indol-3-yl)methyl)-6-phenyl-1,2,4-triazin-5-yl)benzyl)methanesulfonamide]: 6.72 ± 0.06; `CS(=O)(=O)NCc1ccc(-c2nnc(Cc3c[nH]c4ccccc34)nc2-c2ccccc2)cc1` [Compound 48, N-(4-(3-((1H-Indol-3-yl)methyl)-5-phenyl-1,2,4-triazin-6-yl)benzyl)methanesulfonamide]: 7.61 ± 0.06.
Next, `COC(=O)c1ccc(-c2nc(Cc3c[nH]c4ccccc34)nnc2-c2ccccc2)cc1` [Compound 49, Methyl 4-(3-((1H-Indol-3-yl)methyl)-6-phenyl-1,2,4-triazin-5-yl)benzoate]: 6.74 ± 0.05.
As to `O=C(O)c1ccc(-c2nnc(Cc3c[nH]c4ccccc34)nc2-c2ccccc2)cc1` [Compound 52, 4-(3-((1H-Indol-3-yl)methyl)-5-phenyl-1,2,4-triazin-6-yl)benzoic Acid], the “GTPγS (pIC50)” value came to 7.06 ± 0.22.
The result for `O=C(O)c1cccc(-c2nc(Cc3c[nH]c4ccccc34)nnc2-c2ccccc2)c1` [Compound 55, 3-(3-((1H-Indol-3-yl)methyl)-6-phenyl-1,2,4-triazin-5-yl)benzoic Acid] reads 4.99 ± 0.32; that for `c1ccc(-c2nnc(Cc3c[nH]c4cnccc34)nc2-c2cnccn2)cc1` [Compound 59, 3-((6-Phenyl-5-(pyrazin-2-yl)-1,2,4-triazin-3-yl)methyl)-1H-pyrrolo[2,3-c]pyridine], 5.38 ± 0.12; that for `c1ccc(-c2nc(Cc3c[nH]c4cnccc34)nnc2-c2cnccn2)cc1` [Compound 60, 3-((5-Phenyl-6-(pyrazin-2-yl)-1,2,4-triazin-3-yl)methyl)-1H-pyrrolo[2,3-c]pyridine], 5.91± 0.06.
